Data: patent US9738610B2, “Indazole derivatives and uses thereof” (Whitehead Institute for Biomedical Research, priority 2012, dated 2017)
Like-named read-outs stand apart in the source and are kept apart here.

Columns and labels:
C. albicans CaCi-8 = test: microbe, parasite or virus in culture; type: cell-based, Candida albicans
Method: This subset was re-subjected to the primary assay and was also tested concurrently in two secondary assays. Secondary assay 1 measured chemosensitization of the more resistant CaCi-8 strain. Secondary assay 2 eliminated anything with inherently antifungal activity. […] A final assay (secondary assay 3) was incorporated to discard any compound displaying toxicity to mammalian fibroblasts. […] This screening campaign is also illustrated in FIG. 3B.
Those that inhibited growth in the resistant strain were also tested for toxicity against Candida in the absence of fluconazole and for toxicity against mammalian cells using a fluorescence reporter assay. The positive control for screening in the Candida and mammalian cell assays was the Hsp90 inhibitor geldanamycin (acting in concert with fluconazole; FIG. 4). Compounds that passed these four hurdles were binned through use of a Saccharomyces assay to determine whether the mechanism of action might be through the Hsp90 pathway, the calcineurin pathway, or an uncategorized mechanism.

C. albicans CaCi-2 [1] = test: CaCi-2 growth inhibition in the presence of 8 μg/ml fluconazole (Alamar Blue); type: cell-based, Candida albicans
Method: Fluconazole was obtained from Sequoia Research Products, Ltd. and prepared in a 2 mg/ml stock solution in phosphate buffered saline (PBS). […] PBS (Catalog No. 21-040-CV) without calcium and magnesium was obtained from Cellgro. Penicillin/Streptomycin (Pen/Strep) was obtained from Gibco and prepared 100× in PBS.
RPMI medium (1×) was prepared by dissolving 10.4 g powdered medium in 800 ml water. A buffer of 34.52 g MOPS was added. While stirring, pH was adjusted to 7.0 with 10 N NaOH. Next, 10 ml uridine solution and 50 ml glucose solution were added. The final volume was adjusted to 1000 ml, and filter sterilized.
The following yeast strains were used in this study: C. albicans CaCi-2. Fungal inoculum was prepared as follows: 500 μl of strain was inoculated from cryopreserved stock into a 250-ml shaker flask containing 30 ml growth medium and shaken overnight at 30° C. The optical density (OD 600) of 1 ml fungal culture in a cuvette was read using a standard optical density reader (Eppendorf BioPhotometer Plus), with growth medium as a background blank. The desired volume of fungal inoculums was diluted to desired volume of fungal inoculums according to the following formula: (1/OD measured)×(Desired Final Volume of Inoculum)×0.3=Volume of fungal culture (μl) to add to desired volume of growth medium. When added to media in wells, this yields a calculated starting OD of the fungal inoculum of 0.00015.
Fluconazole stock solution was added to the fungal inoculum to achieve 8 μg/ml. Pen/Strep was added to the media to a 1% concentration (v/v). A Thermo Combi nL was used to dispense 20 μl/well of assay media into all wells. Geldanamycin was dispensed in positive control wells using Thermo Combi nL for a final concentration of 3 μM. Then, 100 nl of test compound was pinned from compound plates into assay plates using a CyBi-Well pin tool. A further 20 μl/well of culture was dispensed into the assay media in all wells. The plates were incubated in a humidified (90% humidity) Liconic incubator at 37° C. without agitation for 48 hours. Alamar Blue was diluted 1:40 in Ca/Mg-free PBS. To all plates, […] of the diluted Alamar Blue was added to the plates to a final dilution factor of 1:200. The plates were incubated for an additional 2 hours. Then, Relative Fluorescence Intensity (RFU) of each well was read on standard plate reader as a measure of relative fungal growth.

Plasma stability = conditions: % remaining in human plasma after a 5-hour incubation
Plasma protein binding = conditions: % bound in human plasma
C. albicans CaCi-2 [2] = test: Secondary single-agent (no-fluconazole) activity assay; type: cell-based, Candida albicans; conditions: in the absence of fluconazole; read-out: Target Potency (μM) Mean ± S.E.M CaCi-2^b IC50
Method: Clear, flat-bottom, black, 384-well plates were obtained from Corning. […] Pen/Strep was obtained from Gibco and prepared 100× in PBS. Fluconazole was obtained from Sigma and prepared in 2 mg/ml stock solution in PBS. Alamar Blue was obtained from Biosource International (Catalog No. DAL1100). Phosphate buffered solution (PBS) without calcium and magnesium was obtained from Cellgro.
Fungal inoculum was prepared as follows: 500 μl of yeast was inoculated from cryopreserved stock into a 250-ml shaker flask containing 30 ml growth medium and shaken overnight (16 hours) at 30° C. The culture was spun down, and the broth was poured off and washed with RPMI medium. The culture was spun down again, and the broth was poured off and resuspended in RPMI medium. The OD 600 of 1 ml of fungal culture in a cuvette was read using a standard optical density reader with growth medium as a background blank. The desired volume of fungal inoculum was diluted to starting OD of the fungal inoculum of 0.00015 A600.
Pen/Strep was added to the media to a final 1% concentration. A Combi NL (Thermo) was used to dispense 20 μl/well of assay media into all wells. Geldanamycin (1.5 mM) and fluconazole (0.2 mg/ml) were mixed for the positive control. Then, 80 nl of positive control solution was dispensed into the positive control wells using Thermo Combi nL for a final concentration of 3 μM geldanamycin and 8 μg/ml fluconazole. Then, 100 nl of test compound were pinned from the compound plates into assay plates using a CyBi-Well pin tool. A further 20 μl/well of RPMI synthetic defined medium culture was dispensed into 384-well, black plates. Fungal suspension (20 μl/well) was dispensed into all wells. The plates were incubated in a humidified (90% humidity) Liconic incubator at 37° C. without agitation for 48 hours. Alamar Blue Reagent was diluted 1:40 in Ca/Mg-free PBS. To all plates, 6.4 μl/well of the diluted Alamar Blue was added to the plates to a final dilution factor of 1:200. The plates were incubated for 2 hours at room temperature. Next, RFU of wells was read on a standard plate reader as a measure of relative fungal growth.

[3] = 37° C., 48 hours, with 8 μg/mL (26 μM) fluconazole, average of at least three experiments
[4] = 37° C., 48 hours, with 8 μg/mL (26 μM) fluconazole, average of at least three experiments, read-out: CaCi-8 IC50
[5] = 37° C., 48 hours, with 8 μg/mL (26 μM) fluconazole, average of at least three experiments, read-out: CaCi-2 IC50
[6] = Table 12, read-out: CaCi-8 IC50 with 8 μg/ml fluconazole
[7] = in the presence of fluconazole, read-out: Target Potency (μM) Mean ± S.E.M CaCi-8^a IC50

Structure (SMILES)	CaCi-8 IC50 (μM) (C. albicans CaCi-8; [3])	CaCi-2 IC50 (μM) (C. albicans CaCi-2 [1]; [3])	IC50 (C. albicans CaCi-8; [4]) [µM]	IC50 (C. albicans CaCi-2 [1]; [5]) [µM]	other results
COC(=O)Cn1nc(-c2ccccc2)c2cccnc21	inactive	inactive			
COC(=O)Cn1nc(C(C)(C)C)c2ccccc21	inactive	inactive			
COC(=O)Cn1nc(C2CC2)c2ccccc21	Inactive	inactive			
COC(=O)Cn1nc(C2CCCCC2)c2ccccc21			6 ± 1.7	2.3 ± 0.3	
COC(=O)Cn1nc(-c2cnco2)c2ccccc21	inactive	inactive			
COC(=O)Cn1nc(-c2cscn2)c2ccccc21	inactive			12.9 ± 1.7	
COC(=O)Cn1nc(-c2cccc(C)c2)c2ccccc21 [CID 49835823]					IC50 (C. albicans CaCi-8; [6]): 1.3 µM; IC50 (C. albicans CaCi-2 [1]; in the presence of fluconazole, read-out: CaCi-2 growth inhibition IC50): 0.65 µM
COC(=O)Cn1nc(-c2cccc(F)c2)c2ccccc21 [CID 49835858]					IC50 (C. albicans CaCi-8; [6]): 2.1 µM; IC50 (C. albicans CaCi-2 [1]; Table 12, read-out: CaCi-2 IC50 with 8 μg/ml fluconazole): 1.4 µM
COC(=O)Cn1nc(-c2ccccc2)c2cc(F)ccc21 [Compound 5-F]	inactive			11.2 ± 7.2	
COC(=O)Cn1nc(-c2ccccc2)c2cc(C)ccc21 [Compound 5-Me]			8.2 ± 3.2	5.2 ± 2.2	
COC(=O)Cn1nc(-c2ccccc2)c2cc(OC)ccc21 [Compound 5-OMe]			22.1 ± 6.2	14.9 ± 5.7	
COC(=O)Cn1nc(-c2ccccc2)c2ccc(C(F)(F)F)cc21 [Compound 6-CF3]	inactive	inactive			
COC(=O)Cn1nc(-c2ccccc2)c2ccc(C#N)cc21 [Compound 6-CN]	inactive	inactive			
COC(=O)Cn1nc(-c2ccccc2)c2ccc(Cl)cc21 [Compound 6-Cl]			8.4 ± 0.5	4 ± 1.3	
COC(=O)Cn1nc(-c2ccccc2)c2ccc(C)cc21 [Compound 6-Me]	inactive			5.9 ± 3.1	
COC(=O)Cn1nc(-c2ccccc2)c2ccc(OC)cc21 [Compound 6-OMe]			12.4 ± 0.5	9.5 ± 2.5	
COC(=O)Cn1nc(-c2ccccc2)c2cccc(C(F)(F)F)c21 [Compound 7-CF3]	inactive	inactive			
COC(=O)Cn1nc(-c2ccccc2)c2cc(OC)ccc21 [Compound 49835837]					Plasma Stability (Plasma stability): PBS Solubility: <1.0 μM Plasma Protein Binding: <1.0% Plasma Stability: <1.0% Purity (UPLC): >99%; IC50 (C. albicans CaCi-8; [7]): 18.5 µM; Plasma Protein Binding (Plasma protein binding): PBS Solubility: <1.0 μM Plasma Protein Binding: <1.0% Plasma Stability: <1.0% Purity (UPLC): >99%; IC50 (C. albicans CaCi-2 [2]): > 26 µM
CC(C)(C)OC(=O)Cn1nc(-c2ccccc2)c2ccccc21 [Compound 49835839]					Plasma Stability (Plasma stability): 85%; IC50 (C. albicans CaCi-8; [7]): > 26 µM; Plasma Protein Binding (Plasma protein binding): > 99%; IC50 (C. albicans CaCi-2 [2]): > 26 µM
CCCCn1nc(-c2ccccc2)c2ccccc21 [Compound 49835848]					Plasma Stability (Plasma stability): 81%; IC50 (C. albicans CaCi-8; [7]): > 26 µM; Plasma Protein Binding (Plasma protein binding): > 99%; IC50 (C. albicans CaCi-2 [2]): > 26 µM

Structure (SMILES)	CaCi-8 IC50 (μM) (C. albicans CaCi-8; [3])	CaCi-2 IC50 (μM) (C. albicans CaCi-2 [1]; [3])	IC50 (C. albicans CaCi-8; [4]) [µM]	IC50 (C. albicans CaCi-2 [1]; [5]) [µM]	other results
COC(=O)Cn1nc(-c2ccccc2)c2ccc(C(F)(F)F)cc21 [Compound 49835849]					Plasma Stability (Plasma stability): 1.7%; IC50 (C. albicans CaCi-8; [7]): 32.1 µM; Plasma Protein Binding (Plasma protein binding): 62%; IC50 (C. albicans CaCi-2 [2]): > 26 µM
COC(=O)Cn1nc(-c2ccc(C#N)cc2)c2ccccc21 [Compound 49835863]					Plasma Stability (Plasma stability): < 1.0%; IC50 (C. albicans CaCi-8; [7]): 20 µM; Plasma Protein Binding (Plasma protein binding): 92%; IC50 (C. albicans CaCi-2 [2]): > 26 µM
O=C(Cn1nc(-c2ccccc2)c2ccccc21)OC1CCC1 [Compound 49835870]					Plasma Stability (Plasma stability): 2.0%; IC50 (C. albicans CaCi-8; [7]): > 26 µM; Plasma Protein Binding (Plasma protein binding): > 99%; IC50 (C. albicans CaCi-2 [2]): > 26 µM
COC(=O)C(C)(C)n1nc(-c2ccccc2)c2ccccc21 [Compound 49835873]					Plasma Stability (Plasma stability): 63%; IC50 (C. albicans CaCi-8; [7]): > 26 µM; Plasma Protein Binding (Plasma protein binding): > 99%; IC50 (C. albicans CaCi-2 [2]): > 26 µM
COC(=O)Cn1nc(-c2ccccc2)c2ccccc21 [Compound I-16, methyl 3-phenyl-1H-indazole acetate]					IC50 (C. albicans CaCi-2 [1]; Candida albicans, CACI2, Table 12, read-out: CaCi-2 IC50 with 8 μg/ml fluconazole): 1.8 µM
COC(=O)Cn1nc(-c2ccc(C)cc2)c2ccccc21 [Cpd 30]			19.5 ± 14.2	4.8 ± 2.5	
COC(=O)Cn1nc(-c2ccc(OC)cc2)c2ccccc21 [Cpd 31]			14.1 ± 6.4	4.2 ± 1.7	
COC(=O)Cn1nc(-c2ccc(F)cc2)c2ccccc21 [Cpd 32]			12.3 ± 3.9	8.3 ± 2.8	
COC(=O)Cn1nc(-c2ccc(C(F)(F)F)cc2)c2ccccc21 [Cpd 33]	inactive	inactive			
COC(=O)Cn1nc(-c2ccc(C#N)cc2)c2ccccc21 [Cpd 34]		inactive	20.5 ± 0.3		
COC(=O)Cn1nc(-c2cccc(C)c2)c2ccccc21 [Cpd 35]			1.9 ± 0.9	1.1 ± 0.6	
COC(=O)Cn1nc(-c2cccc(OC)c2)c2ccccc21 [Cpd 36]			1.5 ± 0.6	0.7 ± 0.3	
COC(=O)Cn1nc(-c2cccc(N(C)C)c2)c2ccccc21 [Cpd 37]			2 ± 0.2	0.8 ± 0.1	
COC(=O)Cn1nc(-c2cccc(F)c2)c2ccccc21 [Cpd 38]			4.2 ± 4.1	1.7 ± 0.4	
COC(=O)Cn1nc(-c2ccccc2C)c2ccccc21 [Cpd 39]			7.8 ± 2.6	5.3 ± 0.5	
COC(=O)Cn1nc(-c2ccccc2OC)c2ccccc21 [Cpd 40]			11.4 ± 1.7	9.3 ± 3.6	
COC(=O)Cn1nc(-c2cc(OC)cc(OC)c2)c2ccccc21 [Cpd 41]	inactive	inactive			
COC(=O)Cn1nc(-c2cccnc2)c2ccccc21 [drawing 228]	inactive				CaCi-2 IC50 (μM) (C. albicans CaCi-2 [1]): inactive
COC(=O)Cn1nc(-c2cncnc2)c2ccccc21 [drawing 229]		inactive	21.1 ± 3.3		
CCc1nn(CC(=O)OC)c2ccccc12 [—Et]	inactive	inactive			
